Measurements taken from US20230218632A1, “CYCLIC SULFONAMIDE DERIVATIVES AS TRAP1 MODULATORS AND USES THEREOF” (Amathus Therapeutics, Inc., priority 2020, published 2023).
pEC50: −log10 of the molar value.

Molecular target: T1, TRAP1 enzyme (Homo sapiens, UniProt Q12931)
T1 sequence (Q12931 60-704): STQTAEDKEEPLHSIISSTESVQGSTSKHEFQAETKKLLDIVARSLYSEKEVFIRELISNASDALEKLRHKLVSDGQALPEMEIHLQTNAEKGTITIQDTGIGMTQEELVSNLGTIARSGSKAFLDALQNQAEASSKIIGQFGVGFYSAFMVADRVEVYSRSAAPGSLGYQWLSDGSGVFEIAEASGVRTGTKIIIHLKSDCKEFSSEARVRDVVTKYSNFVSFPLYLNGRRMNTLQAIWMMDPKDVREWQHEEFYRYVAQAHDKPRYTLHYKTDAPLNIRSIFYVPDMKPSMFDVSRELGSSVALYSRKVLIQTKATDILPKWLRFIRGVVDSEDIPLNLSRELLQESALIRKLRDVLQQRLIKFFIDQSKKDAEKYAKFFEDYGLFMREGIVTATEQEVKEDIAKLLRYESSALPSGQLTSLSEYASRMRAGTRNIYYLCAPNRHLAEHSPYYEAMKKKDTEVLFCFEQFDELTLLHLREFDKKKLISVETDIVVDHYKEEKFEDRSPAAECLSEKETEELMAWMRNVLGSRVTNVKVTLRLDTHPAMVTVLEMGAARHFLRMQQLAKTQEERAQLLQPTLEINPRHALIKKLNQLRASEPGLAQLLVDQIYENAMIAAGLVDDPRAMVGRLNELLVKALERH
Experiment: ADP Glo assay (ATPase activity of TRAP1)
Format: biochemical
Conditions: for pEC50: 150 nM Trap1, 20 µM ATP, concentration for half maximal activation, read-out: ADP GLO DRC: GeoMean EC50; for Emax: read-out: ADP GLO DRC: Mean Emax
Experimental: Potency of test compounds to modulate the ATPase activity of TRAP1 enzyme was evaluated using ADP Glo assay. The assay is based on quantification of the ADP generated from ATP in the ATPase reaction. The assay is performed in two steps; first, after the ATPase reaction, an equal volume of ADP-Glo™ Reagent is added to terminate the ATPase reaction and deplete the remaining ATP. Second, the Kinase Detection Reagent is added to simultaneously convert ADP to ATP and allow the newly synthesized ATP to be measured using a luciferase/luciferin reaction.
All the assays were carried out in a 384-well Proxiplate. The buffer used was 25 mM Pipes pH-7.5, 40 mM KCl, 0.05 mM MgCl2, 0.025 % BSA, 0.316 mM EGTA, 0.003% Empigen, 0.01% Igepal. 150 nM Trap1 enzyme was incubated with various concentrations of the test compound (0.79 µM - 100 µM) at 37° C. for 30 mins (except in blank wells). 20 µM ATP was added to each well to start the reaction. The plate was spun for 1 min at 1200 rpm and then incubated at 37° C. for 60 mins. 5 µl of ADP Glo reagent was added to all the wells and spun the plate for 1 min at 1200 rpm and kept it on a shaker at ambient temperature for 60 mins. 10 µl of kinase detection mix was added to all the wells and the plate was read for Luminescence at 495 nm. The amount of ADP released was estimated from ATP/ADP standard curve generated at the same experimental conditions. Emax (Maximal percent activation) and EC50 (concentration for half maximal activation ) were estimated by fitting the dose response data to a sigmoidal curve fitting equation using Graphpad Prism software V. 8.

Row | Compound | pEC50 | Emax (maximal percent activation) | ADP GLO DRC: Mean Emax (maximal percent activation)
1 | Cc1ccncc1C(=O)Nc1ccc2c(c1)S(=O)(=O)N(c1ccc(Cl)cc1)CCO2 [Compound 1209, N-(2-(4-chlorophenyl)-1,1-Dioxido-3,4-Dihydro-2H-Benzo[b][1,4,5] Oxathiazepin-8-yl)-4-Methylnicotinamide] | 4.00 to 4.52 | 150 to 200% | 
2 | Cn1c(C(=O)Nc2ccc3c(c2)S(=O)(=O)N(c2ccc(C(F)(F)F)cc2)CCO3)cccc1=O [Compound 2221] | 4.00 to 4.52 | 150 to 200% | 
3 | Cc1ocnc1C(=O)Nc1ccc2c(c1)S(=O)(=O)N(c1ccc(F)cc1)CCO2 [Compound 2375, N-(2-(4-fluorophenyl)-1,1-dioxido-3,4-dihydro-2H-benzo[b][1,4,5]oxathiazepin-8-yl)-5-methyloxazole-4-carboxamide] | 4.00 to 4.52 | 150 to 200% | 
4 | Cc1cnncc1C(=O)Nc1ccc2c(c1)S(=O)(=O)N(c1ccc(C(F)(F)F)cc1)CCO2 [Compound 2275] | 4.00 to 4.52 | 150 to 200% | 
5 | Cc1ncccc1C(=O)Nc1ccc2c(c1)S(=O)(=O)N(c1ccc(C(F)(F)F)cc1)CCO2 [Compound 2286] | 4.00 to 4.52 | > 200% | 
6 | O=C(Nc1ccc2c(c1)S(=O)(=O)N(c1ccc(C(F)(F)F)cc1)CCO2)c1cncn1CCO [Compound 2514] | 4.52 to 4.70 | 129 to 149% | 
7 | O=C(Nc1ccc2c(c1)S(=O)(=O)N(c1ccc(C(F)(F)F)cc1)CCO2)c1cnn2c1CCC2 [Compound 2179] | 4.52 to 4.70 | 150 to 200% | 
8 | Cc1ccccc1N1CCOc2ccc(NC(=O)c3ncoc3C)cc2S1(=O)=O [Compound 2096, N-(1,1-dioxido-2-(o-tolyl)-3,4-dihydro-2H-benzo[b][1,4,5]oxathiazepin-8-yl)-5-methyloxazole-4-carboxamide] | 4.00 to 4.52 | 150 to 200% | 
9 | O=C(Nc1ccc2c(c1)S(=O)(=O)N(c1ccc(C(F)(F)F)cc1)CCO2)c1cc(=O)cc[nH]1 [Compound 2473] | 4.00 to 4.52 | > 200% | 
10 | Cc1ocnc1C(=O)N(C)c1ccc2c(c1)S(=O)(=O)N(c1ccc(C(F)(F)F)cc1)CCO2 [Compound 2449] | 4.00 to 4.52 | 150 to 200% | 
11 | O=C(Nc1ccc2c(c1)S(=O)(=O)N(c1ccc(C(F)(F)F)cc1)CCO2)c1ccc(O)nc1 [Compound 2299] | 4.00 to 4.52 | > 200% | 
12 | Cc1cc(C(=O)Nc2ccc3c(c2)S(=O)(=O)N(c2ccc(C(F)(F)F)cc2)CCO3)ccn1 [Compound 2172] | 4.52 to 4.70 | 150 to 200% | 
13 | CN1CCCCC1C(=O)Nc1ccc2c(c1)S(=O)(=O)N(c1ccc(C(F)(F)F)cc1)CCO2 (stereo not drawn) [Compound 2402] | 4.00 to 4.52 | 150 to 200% | 
14 | COc1ncncc1C(=O)Nc1ccc2c(c1)S(=O)(=O)N(c1ccc(C(F)(F)F)cc1)CCO2 [Compound 2245] | 4.52 to 4.70 | 129 to 149% | 
15 | Cc1nn(C)cc1C(=O)Nc1ccc2c(c1)S(=O)(=O)N(c1ccc(C(F)(F)F)cc1)CCO2 [Compound 2219] | 4.00 to 4.52 | > 200% | 
16 | O=C(Nc1ccc2c(c1)S(=O)(=O)N(c1ccc(C(F)(F)F)cc1)CCO2)c1cncs1 [Compound 2180] | 4.52 to 4.70 | 150 to 200% | 
17 | NCc1cccc(C(=O)Nc2ccc3c(c2)S(=O)(=O)N(c2ccc(C(F)(F)F)cc2)CCO3)n1 [Compound 2513] | 4.00 to 4.52 | > 200% | 
18 | O=C(Nc1ccc2c(c1)S(=O)(=O)N(c1ccc(C(F)(F)F)cc1)CCO2)c1csc(CO)n1 [Compound 2305] | 4.52 to 4.70 | 129 to 149% | 
19 | Cc1nc(C)c(C(=O)Nc2ccc3c(c2)S(=O)(=O)N(c2ccc(C(F)(F)F)cc2)CCO3)o1 [Compound 1974, N-(1,1-Dioxido-2-(4-(Trifluoromethyl)Phenyl)-3,4-Dihydro-2H-Benzo[b][1,4,5]Oxathiazepin-8-yl)-2,4-Dimethyloxazole-5-Carboxamide] | 4.52 to 4.70 | 150 to 200% | 
20 | Cc1ncncc1C(=O)Nc1ccc2c(c1)S(=O)(=O)N(c1ccc(C(F)(F)F)cc1)CCO2 [Compound 2206] | 4.00 to 4.52 | 150 to 200% | 
21 | CC(C)n1cc(C(=O)Nc2ccc3c(c2)S(=O)(=O)N(c2ccc(C(F)(F)F)cc2)CCO3)cn1 [Compound 2192] | 4.52 to 4.70 | 129 to 149% | 
22 | Cn1nncc1C(=O)Nc1ccc2c(c1)S(=O)(=O)N(c1ccc(C(F)(F)F)cc1)CCO2 [Compound 2226] | 4.00 to 4.52 | 150 to 200% | 
23 | CC(C)c1ncsc1C(=O)Nc1ccc2c(c1)S(=O)(=O)N(c1ccc(C(F)(F)F)cc1)CCO2 [Compound 2080, N-(1,1-Dioxido-2-(4-(Trifluoromethyl)Phenyl)-3,4-Dihydro-2H-Benzo[b][1,4,5]Oxathiazepin-8-yl)-4-Isopropylthiazole-5-Carboxamide] | 4.52 to 4.70 | 129 to 149% | 

Other lines, results leading:

Row | pEC50 | Emax (maximal percent activation) | ADP GLO DRC: Mean Emax (maximal percent activation) | Compound
24 | 4.52 to 4.70 | 129 to 149% |  | COc1cnccc1C(=O)Nc1ccc2c(c1)S(=O)(=O)N(c1ccc(C(F)(F)F)cc1)CCO2 [Compound 2209]
25 | > 4.70 | 150 to 200% |  | Cn1cccc(C(=O)Nc2ccc3c(c2)S(=O)(=O)N(c2ccc(C(F)(F)F)cc2)CCO3)c1=O [Compound 2268]
26 | > 4.70 | 150 to 200% |  | Cc1cncc(C(=O)Nc2ccc3c(c2)S(=O)(=O)N(c2ccc(C(F)(F)F)cc2)CCO3)c1 [Compound 2191]
27 | > 4.70 | 150 to 200% |  | Cc1cnc(C(=O)Nc2ccc3c(c2)S(=O)(=O)N(c2ccc(C(F)(F)F)cc2)CCO3)nc1 [Compound 2210]
28 | > 4.70 | > 200% |  | Cc1ncc(C(=O)Nc2ccc3c(c2)S(=O)(=O)N(c2ccc(C(F)(F)F)cc2)CCO3)n1C [Compound 2355]
29 | > 4.70 | 129 to 149% |  | O=C(Nc1ccc2c(c1)S(=O)(=O)N(c1ccc(C(F)(F)F)cc1)CCO2)c1cnc(-c2ccccc2)[nH]1 [Compound 2423]
30 | 4.52 to 4.70 | 150 to 200% |  | Cc1ccncc1C(=O)Nc1ccc2c(c1)S(=O)(=O)N(c1ccc(C(F)(F)F)cc1)CCO2 [Compound 1212, N-(1,1-Dioxido-2-(4-(Trifluoromethyl)Phenyl)-3,4-Dihydro-2H-Benzo[b][1,4,5]Oxathiazepin-8-yl)-4-Methylnicotinamide]
31 | > 4.70 |  | B (150-200%, inclusive) | Cc1cc(C(=O)Nc2ccc3c(c2)S(=O)(=O)N(c2ccc(C(F)(F)F)cc2)CCO3)cc(C)n1 [Compound 2173]
32 | > 4.70 | 129 to 149% |  | COc1cc(N2CCOc3ccc(NC(=O)c4ncoc4C)cc3S2(=O)=O)ccc1C(F)(F)F [Compound 2398]
33 | > 4.70 | 150 to 200% |  | O=C(Nc1ccc2c(c1)S(=O)(=O)N(c1ccc(C(F)(F)F)cc1)CCO2)c1ccc(CO)cn1 [Compound 2296]
34 | > 4.70 | 129 to 149% |  | Cc1ocnc1C(=O)Nc1ccc2c(c1)S(=O)(=O)N(c1ccc(C(F)(F)F)cc1)CCO2 [Compound 1975, N-(1,1-Dioxido-2-(4-(Trifluoromethyl)Phenyl)-3,4-Dihydro-2H-Benzo[b][1,4,5]Oxathiazepin-8-yl)-5-Methyloxazole-4-Carboxamide]
35 | > 4.70 | 129 to 149% |  | Cc1cnn(C)c1C(=O)Nc1ccc2c(c1)S(=O)(=O)N(c1ccc(C(F)(F)F)cc1)CCO2 [Compound 2317]
36 | > 4.70 | 150 to 200% |  | COc1cc(C(=O)Nc2ccc3c(c2)S(=O)(=O)N(c2ccc(C(F)(F)F)cc2)CCO3)n(C)n1 [Compound 2222]
37 | > 4.70 | 150 to 200% |  | CCc1ncccc1C(=O)Nc1ccc2c(c1)S(=O)(=O)N(c1ccc(C(F)(F)F)cc1)CCO2 [Compound 2344]
38 | > 4.70 | 150 to 200% |  | Cc1ncoc1C(=O)Nc1ccc2c(c1)S(=O)(=O)N(c1ccc(C(F)(F)F)cc1)CCO2 [Compound 1190, N-(1,1-Dioxido-2-(4-(Trifluoromethyl)Phenyl)-3,4-Dihydro-2H-benzo[b][1,4,5]Oxathiazepin-8-yl)-4-Methyloxazole-5-Carboxamide]
39 | > 4.70 | 129 to 149% |  | Cc1ncoc1C(=O)Nc1ccc2c(c1)S(=O)(=O)N(c1ccc(C(F)(F)F)cc1)CCC2 [Compound 2458]
